Assays:
[1] = molecular target: T1, DENV3 FL NS5 (Dengue virus type 3, UniProt Q6YMS4); experiment: DENV3 FL NS5 de novo initiation FAPA assay; type: biochemical; conditions: one experiment; read-out: DENV FL NS5 de novo initiation FAPA, IC50, DENV3
T1 construct: 100 nM DENV FL NS5 protein was added; made in house
Procedure: DENV1-4 FL NS5 dnI assays were performed as described previously. Briefly, compounds from 0–20 or -100 μM concentrations are two-fold serially diluted into 384-well black opaque plates (Corning Costar), after which 100 nM DENV FL NS5 protein was added and the plates incubated at RT for 20 min. RNA and ATTO-CTP, ATP, GTP and UTP were then added and the plates incubated for another 120 min. Reactions were stopped with buffer containing 25 nM CIP, re- incubated at RT for 60 min and read on a Tecan Safire II microplate reader. For order-of-addition experiments, DENV4 FL NS5 was incubated for one hour at RT with RNA, ATP, and GTP or RNA, ATP, GTP and ATTO-CTP, followed by exposure to serially diluted compounds for 20 min at RT. The missing components (ATTO-CTP and UTP or UTP alone) were added and the reactions continued for 120 min after which STOP buffer was added as before. All datapoints were performed in duplicate wells. Each compound was tested at least twice.
2 Co mpound testing with DENV dn I FAPA assays. Final dn I assa y reaction mixtures
3 contained 100 nM DENV 5 ´UTR-L-3´UTR IVT RNA, 20 µ M ATP, 20 µM GTP, 20 µM
4 UTP, 5 µM ATTO -CTP, and 100 nM of DENV FL NS5 protein in 15 µl in assa y buffer
5 comprising 50 mM Tris/ HCl, pH 7.5, 10 mM KCl, 1 mM MgCl2, 0.3 mM MnCl2 (DENV2
6 and 4) or 1 mM MnCl 2 (DENV1 and 3), 0.001% Triton- X-100 and 10 µ M cystein e [ 1] . To
7 perform dose-respons e inhibition measurements, compounds from 0- 20 or - 100 µM
8 concentr ations are two -fold seriall y diluted into 384-well black opaqu e plat es (Corning
9 Costar), after which 100 nM DENV FL NS5 protein was added into resp ect ive wells. The
10 plates wer e sealed, b riefl y shak en and centrif uged at 1500 rpm for 30 sec and incubated at RT
11 for 15 min. Thereafter,RNA and ATTO -CTP, ATP, GTP and UTP were added to the wells to
12 start the reactions. The pl ates wer e re-seal ed, shaken and centrifuged as before, followed b y
13 incubation RT for 120 min. Reactions were stopped by addition of 10 µl of 2.5X STOP
14 buffer (200 mM NaCl, 25 mM MgCl2, 1.5M DEA, pH 10; Promega) with 25 nM calf
15 intestinal phosphatase (CIP), re- incubation at RT for 60 min and read on a Tecan Safire II
16 microplate reader. For o r der-of-addition experiments, DENV4 FL NS5 was incubated for one
17 hour at RT with RNA, ATP, and GTP or RNA, ATP, GTP and ATTO-CTP, followed by
18 exposure to seriall y dilut ed compounds for 20 mi n at RT. The missing components (ATTO-
19 CTP and UTP or UTP alone) were added and the reactions continued for 120 min after which
20 STOP buffer was added as before. All datapoints were performed in duplicate wells. Each
21 compound was tested at l east twice.
23 Compound testing in DENV1-4 infected cells by high content imaging. Approximatel y 7
24 × 10^3 A549 cells per well were s eeded into 384-well plates in Ham’s F-12K medium

[2] = tested on: DENV2-NGC replicon L512V/E802D; type: cell-based; conditions: electroporated BHK-21; 2 days
[3] = molecular target: DENV4 RdRp (Dengue virus type 4, UniProt P09866); experiment: Surface plasmon resonance binding assay (Biacore T200)
Procedure: Biotinylated DENV3 and DENV4 RdRp were captured on flow cells 2 and 4 respectively in 50 mM Tris/HCl, pH 7.5, 200 mM NaCl, 2 mM DTT, 0.05% Tween 20, and 3% DMSO at 4°C. Flow cell 1 and 3 were left blank to serve as a reference [37]. […] Compounds were injected at a flow rate of 30 μL/min, with 45 s contact time and 600 s dissociation, starting from the DMSO control and finishing with the highest concentration.

[4] = in vitro; type: cell-based; conditions: human; 4–5 days; read-out: CC50, HepG2
[5] = tested on: DENV2-NGC Ren-LUC Replicon in BHK21; experiment: Stable BHK21 DENV2-NGC renilla luciferase replicon assay; type: cell-based; conditions: Dengue virus, DENV2, BHK-21; 48 hr
[6] = tested on: DENV2-NGC virus L512V/E802D; type: cell-based; conditions: A549, MOI = 0.2; 48 hr; plaque assay
[7] = tested on: DENV3 strain MY05-34640; conditions: A549; 48 hr; read-out: DENV3 HCI, EC50 (converted); cited from earlier work
[8] = tested on: DENV1, strain MY97-10245; conditions: A549; 48 hr; read-out: DENV1 HCI, EC50; cited from earlier work

Sequence of DENV4 RdRp (P09866 2753-3387): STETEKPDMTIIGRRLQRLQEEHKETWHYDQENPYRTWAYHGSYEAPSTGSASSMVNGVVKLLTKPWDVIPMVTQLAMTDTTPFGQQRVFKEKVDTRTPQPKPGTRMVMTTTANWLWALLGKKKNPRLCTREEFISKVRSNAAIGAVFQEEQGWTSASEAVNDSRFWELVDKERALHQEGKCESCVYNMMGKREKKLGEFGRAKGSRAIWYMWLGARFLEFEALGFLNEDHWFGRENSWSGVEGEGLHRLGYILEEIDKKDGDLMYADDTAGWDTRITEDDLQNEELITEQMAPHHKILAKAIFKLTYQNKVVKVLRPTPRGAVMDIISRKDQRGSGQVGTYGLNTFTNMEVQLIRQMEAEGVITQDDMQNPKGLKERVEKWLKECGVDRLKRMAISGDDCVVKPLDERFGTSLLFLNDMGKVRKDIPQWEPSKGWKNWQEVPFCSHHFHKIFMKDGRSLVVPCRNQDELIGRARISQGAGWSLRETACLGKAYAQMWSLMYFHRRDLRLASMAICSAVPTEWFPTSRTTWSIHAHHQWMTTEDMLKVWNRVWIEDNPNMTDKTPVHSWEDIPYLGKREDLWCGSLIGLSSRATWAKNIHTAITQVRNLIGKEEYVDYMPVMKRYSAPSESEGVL
T1 sequence (Q6YMS4 2491-3390): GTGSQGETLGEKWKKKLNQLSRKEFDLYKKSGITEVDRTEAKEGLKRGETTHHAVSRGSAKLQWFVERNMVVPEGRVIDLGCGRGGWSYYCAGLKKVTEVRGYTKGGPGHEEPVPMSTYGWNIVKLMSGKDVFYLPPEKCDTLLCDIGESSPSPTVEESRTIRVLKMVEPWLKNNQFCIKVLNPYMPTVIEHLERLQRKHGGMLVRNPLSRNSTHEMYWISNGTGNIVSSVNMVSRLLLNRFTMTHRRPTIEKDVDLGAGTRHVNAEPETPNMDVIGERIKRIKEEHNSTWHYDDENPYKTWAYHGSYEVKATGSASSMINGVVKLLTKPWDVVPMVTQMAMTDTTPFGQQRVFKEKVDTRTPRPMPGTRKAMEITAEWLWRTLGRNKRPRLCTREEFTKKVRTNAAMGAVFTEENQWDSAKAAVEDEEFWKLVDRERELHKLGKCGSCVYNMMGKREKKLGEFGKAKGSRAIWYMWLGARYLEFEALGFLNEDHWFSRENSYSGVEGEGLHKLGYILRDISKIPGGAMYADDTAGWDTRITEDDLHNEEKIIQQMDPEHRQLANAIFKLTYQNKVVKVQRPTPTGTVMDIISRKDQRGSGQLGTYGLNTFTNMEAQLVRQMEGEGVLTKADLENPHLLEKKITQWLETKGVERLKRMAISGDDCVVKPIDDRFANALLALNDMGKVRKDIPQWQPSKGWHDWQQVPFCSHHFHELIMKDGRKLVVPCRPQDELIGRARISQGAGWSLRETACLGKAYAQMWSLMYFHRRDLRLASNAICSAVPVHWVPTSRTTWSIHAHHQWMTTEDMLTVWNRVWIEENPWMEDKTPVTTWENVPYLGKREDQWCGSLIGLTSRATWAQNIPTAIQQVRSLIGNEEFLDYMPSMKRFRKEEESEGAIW

Row | Compound | IC50 [1] | EC50 [2] | SPR % Rmax [3] | CC50 [4] | EC50 [5] | EC50 [6] | EC50 [7] | EC50 [8]
1 | COc1cccc(S(=O)(=O)NC(=O)c2cc(-c3ccc(C#CCO)s3)c(OC)cc2C)c1 [Compound 26i] | 0.054 µM |  |  |  |  |  |  | 
2 | COc1cccc(S(=O)(=O)NC(=O)c2cc(-c3ccc(C#CCO)s3)c(OC)cc2OC)c1 [Compound 27] |  | 28.4 µM | 66.8% | > 50 µM | 3 µM | 2.32 µM | 1.8 ± 0.5 µM | 1.8 ± 0.1 µM
3 | COc1cc(OC)c(-c2ccc(C#CCO)s2)cc1C(=O)NS(=O)(=O)c1cccc2cccnc12 [Compound 29] | 0.016 µM | 38.8 µM | 20.9% | > 50 µM | 4.6 µM | 7.01 µM | 3.8 µM | 6.3 ± 0.9 µM

Reference: PMC4976923, “Potent Allosteric Dengue Virus NS5 Polymerase Inhibitors: Mechanism of Action and Resistance Profiling” (PLoS Pathogens, 2016)
